Data on 27 compounds can be found in patent US11203574B2 (BioCryst Pharmaceuticals, Inc., priority 2014, dated 2021).

The assay deals with human plasma kallikrein (Homo sapiens (Human), UniProt P03952). As to the kind of experiment: Plasma kallikrein activity assay (chromogenic substrate S2302). It is filed as biochemical. Conditions: 2 nM kallikrein, 80 μM S2302, 30° C., pH 7.8, Ki by Cheng-Prusoff equation, values given as ranges.

Read-outs that look alike come from different tables or passages of the source.

Sequence of human plasma kallikrein (P03952 whole entry, looked up): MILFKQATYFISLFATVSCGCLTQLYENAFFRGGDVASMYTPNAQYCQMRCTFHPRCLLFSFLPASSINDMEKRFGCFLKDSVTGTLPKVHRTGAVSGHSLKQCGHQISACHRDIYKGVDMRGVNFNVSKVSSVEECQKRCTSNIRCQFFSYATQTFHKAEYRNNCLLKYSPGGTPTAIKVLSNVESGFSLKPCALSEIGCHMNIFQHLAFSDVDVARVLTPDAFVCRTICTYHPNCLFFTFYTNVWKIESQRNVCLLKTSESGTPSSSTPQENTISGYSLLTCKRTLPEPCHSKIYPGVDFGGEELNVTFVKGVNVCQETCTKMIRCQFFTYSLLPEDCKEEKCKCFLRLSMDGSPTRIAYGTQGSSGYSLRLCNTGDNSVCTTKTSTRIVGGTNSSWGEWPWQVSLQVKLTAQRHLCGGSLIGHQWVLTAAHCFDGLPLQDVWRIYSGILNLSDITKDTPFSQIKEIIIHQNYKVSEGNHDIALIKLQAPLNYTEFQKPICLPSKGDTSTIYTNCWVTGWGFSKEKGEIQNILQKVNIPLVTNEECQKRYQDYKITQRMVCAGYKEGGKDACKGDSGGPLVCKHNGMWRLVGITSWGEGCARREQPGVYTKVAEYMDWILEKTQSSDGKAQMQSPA
Sequence of human plasma kallikrein (P03952 whole entry partner, looked up): as the sequence (P03952 whole entry, looked up) above

As a reminder, the Ki is the equilibrium dissociation constant of an inhibitor or competing ligand from its target. `NCc1cccc(-n2nc(C(F)(F)F)cc2C(=O)Nc2cccc(C(NCC3CC3)c3cccnc3)c2)c1` (stereo not drawn) [79f, 1-(3-(Aminomethyl)phenyl)-N-(3-(((cyclopropylmethyl)amino)(pyridin-3-yl)methyl)phenyl)-3-(trifluoromethyl)-1H-pyrazole-5-carboxamide]: the Ki (read-out: Ki) was 0.1 to 50 nM. On to `NCc1cccc(-n2nc(C(F)(F)F)cc2C(=O)Nc2cccc(C(NCC3CC3)c3ccccc3F)c2)c1` (stereo not drawn) [117e, 1-(3-(aminomethyl)phenyl)-N-(3-((cyclopropylmethylamino)(2-fluorophenyl)methyl)phenyl)-3-(trifluoromethyl)-1H-pyrazole-5-carboxamide], for which the inhibitory constant (Ki) (read-out: Ki) lay in the range of 0.1 to 50 nM. For `NCc1cccc(-n2nc(C(F)(F)F)cc2C(=O)Nc2cccc(C(O)(CCC3CC3)c3ccccc3)c2)c1` (single isomer, unassigned; (-)) [46i, (−)-1-(3-(aminomethyl)phenyl)-N-(3-(3-cyclopropyl-1-hydroxy-1-phenylpropyl)phenyl)-3-(trifluoromethyl)-1H-pyrazole-5-carboxamide], for the setting “read-out: Ki”, the inhibition constant Ki was in the range of 0.1 to 50 nM.

For the compound `Nc1nccc2ccc(-n3nc(C(F)(F)F)cc3C(=O)Nc3cc(C(CCC4CC4)n4ccccc4=O)ccc3F)cc12` (stereo not drawn) [258g, 1-(1-aminoisoquinolin-7-yl)-N-(5-(3-cyclopropyl-1-(2-oxopyridin-1(2H)-yl)propyl)-2-fluorophenyl)-3-(trifluoromethyl)-1H-pyrazole-5-carboxamide], the Ki (read-out: Ki) was in the range of 0.1 to 50 nM. In the case of `CCOC(c1ccccc1)c1ccc(F)c(NC(=O)c2cc(C(F)(F)F)nn2-c2cccc(CN)c2)c1` (stereo not drawn) [25b, 1-(3-(aminomethyl)phenyl)-N-(5-(ethoxy(phenyl)methyl)-2-fluorophenyl)-3-(trifluoromethyl)-1H-pyrazole-5-carboxamide], the inhibition constant (Ki) (read-out: Ki) lay within 50 to 100 nM. Turning to `CN(C)c1ccc(C(NCC2CC2)c2cccc(NC(=O)c3cc(C(F)(F)F)nn3-c3cccc(CN)c3)c2)c2ccccc12` (stereo not drawn) [126g, 2-(3-Aminomethyl-phenyl)-5-trifluoromethyl-2H-pyrazole-3-carboxylic acid {3-[(cyclopropylmethyl-amino)-(4-dimethylamino-naphthalen-1-yl)-methyl]-phenyl}-amide], under “read-out: Ki”, the inhibition constant Ki is 0.1 to 50 nM. Consider `CS(=O)(=O)NC(CCC1CC1)(c1ccncc1)c1ccc(F)c(NC(=O)c2cc(C(F)(F)F)nn2-c2ccc3ccnc(N)c3c2)c1` (single isomer, unassigned; (-)) [262f, (−)-1-(1-aminoisoquinolin-7-yl)-N-(5-(3-cyclopropyl-1-(methylsulfonamido)-1-(pyridin-4-yl)propyl)-2-fluorophenyl)-3-(trifluoromethyl)-1H-pyrazole-5-carboxamide], for which, under “read-out: Ki”, the Ki is 0.1 to 50 nM. Regarding `Nc1nccc2ccc(-n3nc(C(F)(F)F)cc3C(=O)Nc3cc(C(N)(CCC4CC4)c4ccccc4)ccc3F)cc12` (single isomer, unassigned; (+)) [255a, (+)-N-(5-(1-amino-3-cyclopropyl-1-phenylpropyl)-2-fluorophenyl)-1-(1-aminoisoquinolin-7-yl)-3-(trifluoromethyl)-1H-pyrazole-5-carboxamide], for the setting “read-out: Ki”, the Ki is 0.1 to 50 nM. In the case of `NCc1cccc(-n2nc(C(F)(F)F)cc2C(=O)Nc2cc(C(c3ccccc3)N(CC3CC3)CC3CC3)ccc2F)c1` (single isomer, unassigned; (-)) [206d, (−)-1-(3-(aminomethyl)phenyl)-N-(5-((bis(cyclopropylmethyl)amino)(phenyl)methyl)-2-fluorophenyl)-3-(trifluoromethyl)-1H pyrazole-5-carboxamide], the inhibitory constant (Ki) (read-out: Ki) fell in the range of 0.1 to 50 nM. Turning to `NCc1cccc(-n2nc(C(F)(F)F)cc2C(=O)Nc2cc(C(CCC3CC3)N3C(=O)CCC3=O)ccc2F)c1` (stereo not drawn) [260b, 1-(3-(aminomethyl)phenyl)-N-(5-(3-cyclopropyl-1-(2,5-dioxopyrrolidin-1-yl)propyl)-2-fluorophenyl)-3-(trifluoromethyl)-1H-pyrazole-5-carboxamide], under “read-out: Ki”, the Ki was in the range of 0.1 to 50 nM.

`NCc1cccc(-n2nc(C(F)(F)F)cc2C(=O)Nc2cc(C(NCC3CC3)c3ccc(C(N)=O)cc3)ccc2F)c1` (stereo not drawn) [153b, 1-(3-(aminomethyl)phenyl)-N-(5-((4-carbamoylphenyl)(cyclopropylmethyl-amino)methyl)-2-fluorophenyl)-3-(trifluoromethyl)-1H-pyrazole-5-carboxamide]: the inhibition constant (Ki) (read-out: Ki) was in the range of 0.1 to 50 nM. As for `N#Cc1ccc(C(N)(CCC2CC2)c2ccc(F)c(NC(=O)c3cc(C(N)=O)nn3-c3cccc(CN)c3)c2)cc1` (single isomer, unassigned; (+)) [231d, (+)-N^5-(5-(1-amino-1-(4-cyanophenyl)-3-cyclopropylpropyl)-2-fluorophenyl)-1-(3-(aminomethyl)phenyl)-1H-pyrazole-3,5-dicarboxamide], for the setting “read-out: Ki”, the inhibition constant (Ki) was 0.1 to 50 nM.

Regarding `NCc1cccc(-n2nc(C(F)(F)F)cc2C(=O)Nc2cccc(C(O)(CCC3CC3)c3ccccc3)c2)c1` (single isomer, unassigned; (+)) [46h, (+)-1-(3-(aminomethyl)phenyl)-N-(3-(3-cyclopropyl-1-hydroxy-1-phenylpropyl)phenyl)-3-(trifluoromethyl)-1H-pyrazole-5-carboxamide], the Ki (read-out: Ki) is 0.1 to 50 nM. With `CC(=O)NC(CCC1CC1)(c1cccnc1)c1ccc(F)c(NC(=O)c2cc(C(F)(F)F)nn2-c2cccc(CN)c2)c1` (single isomer, unassigned; (-)) [244h, (−)-N-(5-(1-acetamido-3-cyclopropyl-1-(pyridin-3-yl)propyl)-2-fluorophenyl)-1-(3-(aminomethyl)phenyl)-3-(trifluoromethyl)-1H-pyrazole-5-carboxamide], for the setting “read-out: Ki”, the Ki is 0.1 to 50 nM. For the compound `CC(=O)Nc1ccc(C(OCC2CC2)c2cccc(NC(=O)c3cc(C(F)(F)F)nn3-c3cccc(CN)c3)c2)cc1` (stereo not drawn) [147e, N-(3-((4-acetamidophenyl)(cyclopropylmethoxy)methyl)phenyl)-1-(3-(aminomethyl)phenyl)-3-(trifluoromethyl)-1H-pyrazole-5-carboxamide], the Ki (read-out: Ki) is 0.1 to 50 nM.

With `NCc1cccc(-n2nc(C(F)(F)F)cc2C(=O)Nc2cccc(C(NCC3CC3)c3ccc(O)c(Br)c3)c2)c1` (stereo not drawn) [207j, 1-(3-(Aminomethyl)phenyl)-N-(3-((3-bromo-4-hydroxyphenyl)(cyclopropylmethylamino)methyl)phenyl)-3-(trifluoromethyl)-1H-pyrazole-5-carboxamide], under “read-out: Ki”, the inhibition constant (Ki) fell in the range of 0.1 to 50 nM. Consider `N#Cc1cc(C(=O)Nc2cc(C(NCC3CC3)c3ccccc3)ccc2F)n(-c2cccc(CN)c2)n1` (single isomer, unassigned; (-)) [240b, (−)-1-(3-(aminomethyl)phenyl)-3-cyano-N-(5-((cyclopropylmethylamino)(phenyl)methyl)-2-fluorophenyl)-1H-pyrazole-5-carboxamide], for which, for the setting “read-out: Ki”, the inhibition constant (Ki) was 0.1 to 50 nM. Take `N#Cc1cccc(C(N)(CCC2CC2)c2ccc(F)c(NC(=O)c3cc(C(F)(F)F)nn3-c3cccc(C(=N)N)c3)c2)c1` (single isomer, unassigned; (+)) [237a, (+)-N-(5-(1-amino-1-(3-cyanophenyl)-3-cyclopropylpropyl)-2-fluorophenyl)-1-(3-carbamimidoylphenyl)-3-(trifluoromethyl)-1H-pyrazole-5-carboxamide]: under “read-out: Ki”, the inhibition constant Ki was in the range of 0.1 to 50 nM.

For the compound `NCc1cccc(-n2nc(C(F)(F)F)cc2C(=O)Nc2cccc(C(OCC3CC3)c3ccccc3)c2)c1` (single isomer, unassigned; (+)) [166e, (+)-1-(3-(aminomethyl)phenyl)-N-(3-((cyclopropylmethoxy)(phenyl)methyl)phenyl)-3-(trifluoromethyl)-1H-pyrazole-5-carboxamide], the Ki (read-out: Ki) was 0.1 to 50 nM. For the compound `NCc1cccc(-n2nc(C(F)(F)F)cc2C(=O)Nc2cccc(C(OCC3CC3)c3cccnc3)c2)c1` (racemic) [44c, 1-(3-(aminomethyl)phenyl)-N-(3-((cyclopropylmethoxy)(pyridin-3-yl)methyl)phenyl)-3-(trifluoromethyl)-1H-pyrazole-5-carboxamide], the Ki (read-out: Ki) is 0.1 to 50 nM. With `CCOC(c1ccccc1)c1cccc(NC(=O)c2cc(C(F)(F)F)nn2-c2cccc(CN)c2)c1` (stereo not drawn) [18g, 1-(3-(aminomethyl)phenyl)-N-(3-(ethoxy(phenyl)methyl)phenyl)-3-(trifluoromethyl)-1H-pyrazole-5-carboxamide], the Ki (read-out: Ki) fell in the range of 50 to 100 nM.

`NCc1cccc(-n2nc(C(F)(F)F)cc2C(=O)Nc2cccc(C(OCC3CC3)c3ccccc3)c2)c1` (stereo not drawn) [18k, 1-(3-(aminomethyl)phenyl)-N-(3-((cyclopropylmethoxy)(phenyl)methyl)phenyl)-3-(trifluoromethyl)-1H-pyrazole-5-carboxamide]: the Ki (read-out: Ki) fell in the range of 0.1 to 50 nM. Take `NCc1cccc(-n2nc(C(F)(F)F)cc2C(=O)Nc2cccc(C(OCC3CC3)c3cccc(N)c3)c2)c1` (single isomer, unassigned; (+)) [64b, (+)-1-(3-(aminomethyl)phenyl)-N-(3-((3-aminophenyl)(cyclopropyl-methoxy)methyl)phenyl)-3-(trifluoromethyl)-1H-pyrazole-5-carboxamide]: the Ki (read-out: Ki) fell in the range of 0.1 to 50 nM.

Take `NCc1cccc(-n2nc(C(F)(F)F)cc2C(=O)Nc2cccc(C(NCC3CC3)c3nccs3)c2)c1` (stereo not drawn) [85c, 1-(3-(aminomethyl)phenyl)-N-(3-((cyclopropylmethylamino)(thiazol-2-yl)methyl)phenyl)-3-(trifluoromethyl)-1H-pyrazole-5-carboxamide]: the Ki (read-out: Ki) lay in the range of 0.1 to 50 nM. Regarding `NCc1cccc(-n2nc(C(F)(F)F)cc2C(=O)Nc2cccc(C(OCCC3CC3)c3ccccc3)c2)c1` (stereo not drawn) [74a, 1-(3-(aminomethyl)phenyl)-N-(3-((2-cyclopropylethoxy)(phenyl)methyl)phenyl)-3-(trifluoromethyl)-1H-pyrazole-5-carboxamide], the Ki (Ki) was in the range of 0.1 to 50 nM. On to `CCCOC(c1ccccc1)c1cccc(NC(=O)c2cc(C(F)(F)F)nn2-c2cccc(CN)c2)c1` (stereo not drawn) [18h, 1-(3-(aminomethyl)phenyl)-N-(3-(phenyl(propoxy)methyl)phenyl)-3-(trifluoromethyl)-1H-pyrazole-5-carboxamide], for which the Ki (read-out: Ki) was 50 to 100 nM.

For the compound `NCc1cccc(-n2nc(C(F)(F)F)cc2C(=O)Nc2cccc(C(NCC3CC3)c3c(F)cccc3F)c2)c1` (stereo not drawn) [198f, 1-(3-(aminomethyl)phenyl)-N-(3-(((cyclopropylmethyl)amino)(2,6-difluorophenyl)methyl)phenyl)-3-(trifluoromethyl)-1H-pyrazole-5-carboxamide], for the setting “read-out: Ki”, the inhibition constant (Ki) fell in the range of 0.1 to 50 nM.
